Measurements published in patent US20230085307A1, “PYRIDAZINONE COMPOUND AND HERBICIDE” (NISSAN CHEMICAL CORPORATION, priority 2019, published 2023).

Columns and labels:
[1] = system: late watergrass; assay: Test Example 1: herbicidal activity, application before weed generation under submerged conditions (Table 16, symbol A); type: in vivo, late watergrass (Echinochloa oryzicola)
Outline: (§1)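 Alluvial soil was flooded to 4 cm depth, weed seeds were sown mixed and 2.5-leaf rice seedlings were transplanted. On sowing day, the compound's emulsion, diluted in water to a set dose, was applied to the water surface. Plants grew at 25–30 °C and were scored 0–5 after three weeks.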

[2] = system: Japanese bulrush; assay: Test Example 1: herbicidal activity, application before weed generation under submerged conditions (Table 16, symbol B); type: in vivo, Japanese bulrush (Schoenoplectus juncoides)
Outline: as §1

[3] = system: oval-leafed pondweed; assay: Test Example 1: herbicidal activity, application before weed generation under submerged conditions (Table 16, symbol C); type: in vivo, oval-leafed pondweed (Monochoria vaginalis)
Outline: as §1

[4] = system: barnyard grass; assay: Test Example 3: herbicidal effect by foliage application, Wagner pot (Table 18, symbol H); type: in vivo, barnyard grass (Echinochloa crus-galli); details: 320 g/ha
Outline: (§2)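 Plants were sown in alluvial soil held under 0.1–0.5 cm standing water and grown 14 days in a greenhouse at 25–30 °C. An emulsifiable formulation, water-diluted to the set dose, was then sprayed onto the foliage, and effects were scored three weeks later using previously defined criteria.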

[5] = system: Chinese sprangletop; assay: Test Example 3: herbicidal effect by foliage application, Wagner pot (Table 18, symbol D); type: in vivo, chinese sprangletop (Leptochloa chinensis); details: 320 g/ha
Outline: as §2

[6] = system: rice flat sedge; assay: Test Example 3: herbicidal effect by foliage application, Wagner pot (Table 18, symbol E); type: in vivo, rice flat sedge (Cyperus iria); details: 320 g/ha
Outline: as §2

[7] = system: southern crabgrass; assay: Test Example 4: herbicidal effect by soil treatment (Table 19, symbol F); type: in vivo, southern crabgrass (Digitaria ciliaris)
Outline: (§3)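 Pre-emergence style soil spray: seeds under ~1.5 cm sterilized diluvial soil received a uniform coat of emulsion diluted to the predetermined herbicide amount. Greenhouse 25–30° C; readout at week three on previously defined criteria.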

[8] = system: green foxtail; assay: Test Example 4: herbicidal effect by soil treatment (Table 19, symbol G); type: in vivo, green foxtail (Setaria viridis)
Outline: as §3

[9] = system: barnyard grass; assay: Test Example 4: herbicidal effect by soil treatment (Table 19, symbol H); type: in vivo, barnyard grass (Echinochloa crus-galli)
Outline: as §3

[10] = system: wild oat; assay: Test Example 4: herbicidal effect by soil treatment (Table 19, symbol I); type: in vivo, wild oat (Avena fatua)
Outline: as §3

[11] = system: blackgrass; assay: Test Example 4: herbicidal effect by soil treatment (Table 19, symbol J); type: in vivo, blackgrass (Alopecurus myosuroides)
Outline: as §3

[12] = system: Italian ryegrass; assay: Test Example 4: herbicidal effect by soil treatment (Table 19, symbol K); type: in vivo, Italian ryegrass (Lolium multiflorum)
Outline: as §3

[13] = system: windgrass; assay: Test Example 4: herbicidal effect by soil treatment (Table 19, symbol L); type: in vivo, windgrass (Apera spica-venti)
Outline: as §3

[14] = system: velvetleaf; assay: Test Example 4: herbicidal effect by soil treatment (Table 19, symbol M); type: in vivo, velvetleaf (Abutilon theophrasti)
Outline: as §3

[15] = system: redroot pigweed; assay: Test Example 4: herbicidal effect by soil treatment (Table 19, symbol N); type: in vivo, redroot pigweed (Amaranthus retroflexus)
Outline: as §3

[16] = system: lambsquarters; assay: Test Example 4: herbicidal effect by soil treatment (Table 19, symbol O); type: in vivo, lambsquarters (Chenopodium album)
Outline: as §3

[17] = system: chickweed; assay: Test Example 4: herbicidal effect by soil treatment (Table 19, symbol P); type: in vivo, common chickweed (Stellaria media)
Outline: as §3

[18] = system: persian speedwell; assay: Test Example 4: herbicidal effect by soil treatment (Table 19, symbol R); type: in vivo, Persian speedwell (Veronica persica)
Outline: as §3

[19] = system: southern crabgrass; assay: Test Example 5: herbicidal effect by foliage application, plastic box (Table 20, symbol F); type: in vivo, southern crabgrass (Digitaria ciliaris)
Outline: (§4)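 Plants were sown into sterilized diluvial soil under about 1.5 cm cover and kept in a greenhouse at 25° C. to 30° C. Fourteen days on, foliage received an even spray of the diluted emulsion. Herbicidal or crop effect was judged three weeks afterwards.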

[20] = system: green foxtail; assay: Test Example 5: herbicidal effect by foliage application, plastic box (Table 20, symbol G); type: in vivo, green foxtail (Setaria viridis)
Outline: as §4

[21] = system: barnyard grass; assay: Test Example 5: herbicidal effect by foliage application, plastic box (Table 20, symbol H); type: in vivo, barnyard grass (Echinochloa crus-galli)
Outline: as §4

[22] = system: wild oat; assay: Test Example 5: herbicidal effect by foliage application, plastic box (Table 20, symbol I); type: in vivo, wild oat (Avena fatua)
Outline: as §4

[23] = system: blackgrass; assay: Test Example 5: herbicidal effect by foliage application, plastic box (Table 20, symbol J); type: in vivo, blackgrass (Alopecurus myosuroides)
Outline: as §4

[24] = system: Italian ryegrass; assay: Test Example 5: herbicidal effect by foliage application, plastic box (Table 20, symbol K); type: in vivo, Italian ryegrass (Lolium multiflorum)
Outline: as §4

[25] = system: windgrass; assay: Test Example 5: herbicidal effect by foliage application, plastic box (Table 20, symbol L); type: in vivo, windgrass (Apera spica-venti)
Outline: as §4

[26] = system: velvetleaf; assay: Test Example 5: herbicidal effect by foliage application, plastic box (Table 20, symbol M); type: in vivo, velvetleaf (Abutilon theophrasti)
Outline: as §4

[27] = system: redroot pigweed; assay: Test Example 5: herbicidal effect by foliage application, plastic box (Table 20, symbol N); type: in vivo, redroot pigweed (Amaranthus retroflexus)
Outline: as §4

[28] = system: lambsquarters; assay: Test Example 5: herbicidal effect by foliage application, plastic box (Table 20, symbol O); type: in vivo, lambsquarters (Chenopodium album)
Outline: as §4

[29] = system: chickweed; assay: Test Example 5: herbicidal effect by foliage application, plastic box (Table 20, symbol P); type: in vivo, common chickweed (Stellaria media)
Outline: as §4

[30] = system: persian speedwell; assay: Test Example 5: herbicidal effect by foliage application, plastic box (Table 20, symbol R); type: in vivo, Persian speedwell (Veronica persica)
Outline: as §4

[31] = amount of applied herbicide 320 g/ha
[32] = 320 g/ha, foliage application after 14-day growth, evaluated three weeks after application
[33] = foliage application, AAH 320 g/ha, three weeks after application

For `CCCC(=O)Oc1c(C)nn(C)c(=O)c1-c1c(-c2ccccc2OCC)sc2c(F)cccc12` [4-008], the “Herbicidal effect, A: late watergrass” value [1, 31] was 3 (Herbicidal rate of 40% or more and less than 70%), the “Herbicidal effect, B: Japanese bulrush” value [2, 31] was 3 (Herbicidal rate of 40% or more and less than 70%) and the “Herbicidal effect, C: oval-leafed pondweed” value [3, 31] was 0 (Herbicidal rate of 5% or less (almost no effect)). For the same compound, the “herbicidal effect on barnyard grass (H)” value [4] was 5 (Herbicidal rate of 90% or more (almost completely withered)), the “herbicidal effect on Chinese sprangletop (D)” value [5] was 3 (Herbicidal rate of 40% or more and less than 70%) and the “herbicidal effect on rice flat sedge (E)” value [6] was 5 (Herbicidal rate of 90% or more (almost completely withered)). For the same compound, the “Herbicidal effect by soil treatment, F: southern crabgrass” value [7, 31] was 2 (Herbicidal rate of 20% or more and less than 40%), the “Herbicidal effect by soil treatment, G: green foxtail” value [8, 31] was 3 (Herbicidal rate of 40% or more and less than 70%) and the “Herbicidal effect by soil treatment, H: barnyard grass” value [9, 31] was 3 (Herbicidal rate of 40% or more and less than 70%). For the same compound, the “Herbicidal effect by soil treatment, I: wild oat” value [10, 31] was 0 (Herbicidal rate of 5% or less (almost no effect)), the “Herbicidal effect by soil treatment, J: blackgrass” value [11, 31] was 0 (Herbicidal rate of 5% or less (almost no effect)) and the “Herbicidal effect by soil treatment, K: Italian ryegrass” value [12, 31] was 0 (Herbicidal rate of 5% or less (almost no effect)). For the same compound, the “Herbicidal effect by soil treatment, L: windgrass” value [13, 31] was 0 (Herbicidal rate of 5% or less (almost no effect)), the “Herbicidal effect by soil treatment, M: velvetleaf” value [14, 31] was 1 (Herbicidal rate of 5% or more and less than 20%) and the “Herbicidal effect by soil treatment, N: redroot pigweed” value [15, 31] was 2 (Herbicidal rate of 20% or more and less than 40%). For the same compound, the “Herbicidal effect by soil treatment, O: lambsquarters” value [16, 31] was 2 (Herbicidal rate of 20% or more and less than 40%), the “Herbicidal effect by soil treatment, P: chickweed” value [17, 31] was 1 (Herbicidal rate of 5% or more and less than 20%) and the “Herbicidal effect by soil treatment, R: persian speedwell” value [18, 31] was 0 (Herbicidal rate of 5% or less (almost no effect)). The “herbicidal effect on F: southern crabgrass (evaluation grade 0-5)” value [19, 32] was 4 (Herbicidal rate of 70% or more and less than 90%), the “herbicidal effect on G: green foxtail (evaluation grade 0-5)” value [20, 32] was 5 (Herbicidal rate of 90% or more (almost completely withered)) and the “herbicidal effect on H: barnyard grass (evaluation grade 0-5)” value [21, 32] was 4 (Herbicidal rate of 70% or more and less than 90%). The “herbicidal effect on I: wild oat (evaluation grade 0-5)” value [22, 32] was 0 (Herbicidal rate of 5% or less (almost no effect)), the “herbicidal effect on J: blackgrass (evaluation grade 0-5)” value [23, 32] was 3 (Herbicidal rate of 40% or more and less than 70%) and the “herbicidal effect on K: Italian ryegrass (evaluation grade 0-5)” value [24, 32] was 0 (Herbicidal rate of 5% or less (almost no effect)). The “herbicidal effect on L: windgrass (evaluation grade 0-5)” value [25, 32] was 5 (Herbicidal rate of 90% or more (almost completely withered)), the “herbicidal effect on M: velvetleaf (evaluation grade 0-5)” value [26, 32] was 4 (Herbicidal rate of 70% or more and less than 90%) and the “herbicidal effect on N: redroot pigweed (evaluation grade 0-5)” value [27, 32] was 5 (Herbicidal rate of 90% or more (almost completely withered)). The “herbicidal effect on O: lambsquarters (evaluation grade 0-5)” value [28, 32] was 3 (Herbicidal rate of 40% or more and less than 70%), the “herbicidal effect on P: chickweed (evaluation grade 0-5)” value [29, 32] was 5 (Herbicidal rate of 90% or more (almost completely withered)) and the “herbicidal effect on R: persian speedwell (evaluation grade 0-5)” value [30, 32] was 4 (Herbicidal rate of 70% or more and less than 90%).

`Cc1nn(C)c(=O)c(-c2c(-c3ccc(C(C)C)cc3)sc3ccccc23)c1O` [1-125] was tested, and the “Herbicidal effect on A: late watergrass (grade 0-5)” value ([1]; 320 g/ha applied herbicide) was 3 (Herbicidal rate of 40% or more and less than 70%), the “Herbicidal effect on B: Japanese bulrush (grade 0-5)” value ([2]; 320 g/ha applied herbicide) was 0 (Herbicidal rate of 5% or less (almost no effect)) and the “Herbicidal effect on C: oval-leafed pondweed (grade 0-5)” value ([3]; 320 g/ha applied herbicide) was 0 (Herbicidal rate of 5% or less (almost no effect)). The “herbicidal effect on H (barnyard grass), rating 0-5” value [4] was 5 (Herbicidal rate of 90% or more (almost completely withered)), the “herbicidal effect on D (Chinese sprangletop), rating 0-5” value [5] was 4 (Herbicidal rate of 70% or more and less than 90%) and the “herbicidal effect on E (rice flat sedge), rating 0-5” value [6] was 5 (Herbicidal rate of 90% or more (almost completely withered)). For the same compound, the “F: southern crabgrass, herbicidal effect rating” value ([7]; AAH 320 g/ha) was 1 (Herbicidal rate of 5% or more and less than 20%), the “G: green foxtail, herbicidal effect rating” value ([8]; AAH 320 g/ha) was 3 (Herbicidal rate of 40% or more and less than 70%) and the “H: barnyard grass, herbicidal effect rating” value ([9]; AAH 320 g/ha) was 3 (Herbicidal rate of 40% or more and less than 70%). For the same compound, the “I: wild oat, herbicidal effect rating” value ([10]; AAH 320 g/ha) was 0 (Herbicidal rate of 5% or less (almost no effect)), the “J: blackgrass, herbicidal effect rating” value ([11]; AAH 320 g/ha) was 0 (Herbicidal rate of 5% or less (almost no effect)) and the “K: Italian ryegrass, herbicidal effect rating” value ([12]; AAH 320 g/ha) was 5 (Herbicidal rate of 90% or more (almost completely withered)). The “L: windgrass, herbicidal effect rating” value ([13]; AAH 320 g/ha) was 0 (Herbicidal rate of 5% or less (almost no effect)), the “M: velvetleaf, herbicidal effect rating” value ([14]; AAH 320 g/ha) was 1 (Herbicidal rate of 5% or more and less than 20%) and the “N: redroot pigweed, herbicidal effect rating” value ([15]; AAH 320 g/ha) was 5 (Herbicidal rate of 90% or more (almost completely withered)). The “O: lambsquarters, herbicidal effect rating” value ([16]; AAH 320 g/ha) was 5 (Herbicidal rate of 90% or more (almost completely withered)), the “P: chickweed, herbicidal effect rating” value ([17]; AAH 320 g/ha) was 1 (Herbicidal rate of 5% or more and less than 20%) and the “R: persian speedwell, herbicidal effect rating” value ([18]; AAH 320 g/ha) was 5 (Herbicidal rate of 90% or more (almost completely withered)). For the same compound, the “F: southern crabgrass, herbicidal effect” value [19, 33] was 3 (Herbicidal rate of 40% or more and less than 70%), the “G: green foxtail, herbicidal effect” value [20, 33] was 5 (Herbicidal rate of 90% or more (almost completely withered)) and the “H: barnyard grass, herbicidal effect” value [21, 33] was 5 (Herbicidal rate of 90% or more (almost completely withered)). For the same compound, the “I: wild oat, herbicidal effect” value [22, 33] was 0 (Herbicidal rate of 5% or less (almost no effect)), the “J: blackgrass, herbicidal effect” value [23, 33] was 2 (Herbicidal rate of 20% or more and less than 40%) and the “K: Italian ryegrass, herbicidal effect” value [24, 33] was 5 (Herbicidal rate of 90% or more (almost completely withered)). For the same compound, the “L: windgrass, herbicidal effect” value [25, 33] was 5 (Herbicidal rate of 90% or more (almost completely withered)), the “M: velvetleaf, herbicidal effect” value [26, 33] was 5 (Herbicidal rate of 90% or more (almost completely withered)) and the “N: redroot pigweed, herbicidal effect” value [27, 33] was 5 (Herbicidal rate of 90% or more (almost completely withered)). For the same compound, the “O: lambsquarters, herbicidal effect” value [28, 33] was 5 (Herbicidal rate of 90% or more (almost completely withered)), the “P: chickweed, herbicidal effect” value [29, 33] was 5 (Herbicidal rate of 90% or more (almost completely withered)) and the “R: persian speedwell, herbicidal effect” value [30, 33] was 5 (Herbicidal rate of 90% or more (almost completely withered)).
